One series relates to ROS 17/2.8 cells. Description: Intracellular cAMP in osteoblastic cells. In kind it is cell-based. Particulars: ROS 17/2.8 rat osteosarcoma cells. As to the method:
(§1) RCT-1 and RCT-3 are clonal cell lines immortalized by SV40 large T antigen from cells released from fetal rat calvair by a cmbination collagenase/hyaluronidase digestion. RCT-1 cells, derived from cells released during the first 10 minutes of digestion (fraction I), are cultured in RPMI 1640 medium (BRL) with 10% fetal bovine serum and 0.4 mg/ml G418 (BRL). These cells differentiate and express osteoblastic features upon retinoic acid treatment. RCT-3 cells, immortalized from osteoblast-enriched fraction III cells, are cultured in F-12 medium (BRL) with 5% Fetal bovine serum and 0.4 mg/ml G418. TRAB-11 cells are also immortalized by SV40 large T antigen from adult rat tibia and are cultured in RPMI 1640 medium with 10% FBS and 0.4 mg/ml G418. ROS 17/2.8 rat osteosarcoma cells are cultured in F-12 containing 5% FBS. Osteoblast-enriched (fraction III) primary fetal rat calvaria cells are obtained by collagenase/hyaluronidase digestion of calvariae of 19 day-old rat fetuses. See Rodan et al., Growth stimulation of rat calvaria osieoblastic cells by acidic FGF, Endocrinology, 121, 1919-1923 (1987), which is incorporated by reference herein in its entirety. Cells are released during 30-50 minutes digestion (fraction III) and are cultured in F-12 medium containing 5% FBS. […]

A further series concerns RCT-3 cells. Description: Intracellular cAMP in osteoblastic cells. In kind it is cell-based, rat. As to the method: as §1
In another series the test system is TRAB-11 cells. Briefly: Intracellular cAMP in osteoblastic cells. In kind it is cell-based, rat. As to the method: as §1
In series [1] the test system is EP4 mRNA in RP-1 periosteal cells. Briefly: EP4 mRNA levels (Northern blot) in RP-1 periosteal cells. It counts as cell-based, rat. Particulars: 10^−6 M. The method, then:
(§2) RP-1 periosteal cells are spontaneously immortalized from primary cultures of periosteal cells from tibae of 4-week old Sprague-Dawley rats and are cultured in DMEM (BRL, Gaithersburg, Md.) with 10% fetal bovine serum (JRH Biosciences, Lenexa, Kans.).
(§3) Total RNA is extracted from the tibial metaphysis or diaphysis and calvaria using a guanidinium isothiocyanate-phenol-chloroform method after pulverizing frozen bone samples by a tissue homogenizer. See P. Chomczynski et al., Single-step method of RNA isolation by acid guanidium thiocyanate-phenol-chloroform extraction., Analyt Biochem, 162, 156-159 (1987), which is incorporated by reference herein in its entirety. RNA samples ([…]) are separated on 0.9% agarose/formaldehyde gels and transferred onto nylon membranes (Boehringer Mannheim, Germany). Membranes are prehybridized in Hybrisol I (Oncor, Gaithersburg, Md.) and 0.5 mg/ml sonicated salmon sperm DNA (Boehringer) at 42° C. for 3 hours and are hybridized at 42° C. with rat EP2 and mouse EP4 cDNA probes labeled with [^32P]-dCTP (Amersham, Buckinghamshire, UK) by random priming using the rediprime kit (Amersham). After hybridization, membranes are washed 4 times in 2×SSC+0.1% SDS at room temperature for a total of 1 hour and once with 0.2×SSC+0.1% SDS at 55° C. for 1 hour and then exposed to Kodak XAR 2 film at −70° C. using intensifying screens. […]

Another series deals with EP4 mRNA in RCT-3 cells. Description: EP4 mRNA levels (Northern blot) in RCT-3 cells. It counts as cell-based, rat. The method, then:
as §1

A further series relates to EP2 mRNA in RP-1 cells. Briefly: EP2 mRNA expression (Northern blot) in RP-1 cells. In kind it is cell-based, rat. The method, then:
as §2, §3

Another series has as its system EP4 mRNA in bone tissue. Briefly: EP4 mRNA levels in vivo in bone tissue after systemic PGE2. Particulars: five-week-old male rats, injected 3-6 mg/Kg.
Description: For mRNA localization experiments, 5-week old Sprague-Dawley rats (Charles River) are euthanized by CO2, their tibiae and calvariae are excised, cleaned of soft tissues and frozen immediately in liquid nitrogen. […] Animals are euthanized at several time points post-injection and their tibiae and calvariae, as well as samples from lung and kidney tissues are frozen in liquid nitrogen.
as §3, with “(Amersham).” for “(Amersham). After hybridization, membranes are washed 4 times in 2×SSC+0.1% SDS at room temperature for a total of 1 hour and once with 0.2×SSC+0.1% SDS at 55° C. for 1 hour and then exposed to Kodak XAR 2 film at −70° C. using intensifying screens.”

The test system of a further series is EP2 mRNA in bone tissue. Briefly: EP2 mRNA in vivo in bone tissue after systemic PGE2. Particulars: rats, systemic administration. As to the method:
(§4) For mRNA localization experiments, 5-week old Sprague-Dawley rats (Charles River) are euthanized by CO2, their tibiae and calvariae are excised, cleaned of soft tissues and frozen immediately in liquid nitrogen. For EP4 regulation experiments, 6-week old rats are given a single injection of either vehicle (7% ethanol in sterile water) or an anabolic dose of PGE2 (Cayman Chemical, Ann Arbor, Mich.), 3-6 mg/kg in the same vehicle) intraperitoneally. Animals are euthanized at several time points post-injection and their tibiae and calvariae, as well as samples from lung and kidney tissues are frozen in liquid nitrogen.
Total RNA is extracted from the tibial metaphysis or diaphysis and calvaria using a guanidinium isothiocyanate-phenol-chloroform method after pulverizing frozen bone samples by a tissue homogenizer. See P. Chomczynski et al., Single-step method of RNA isolation by acid guanidium thiocyanate-phenol-chloroform extraction., Analyt Biochem, 162, 156-159 (1987), which is incorporated by reference herein in its entirety. RNA samples ([…]) are separated on 0.9% agarose/formaldehyde gels and transferred onto nylon membranes (Boehringer Mannheim, Germany). […]

The test system of series [2] is EP4 mRNA in bone marrow cells. Briefly: In situ hybridization, localization of EP4 expression in bone. It counts as in vivo. Particulars: single anabolic dose, versus vehicle-injected rats. The method, then: as §4
Frozen tibiae are sectioned coronally at […] thickness and sections are mounted on charged slides (Probe On Plus, Fisher Scientific, Springfield, N.J.) and are kept at −70° C. until hybridization. cRNA probes are labeled with ^35S-UTPgS (ICN, Costa Mesa, Calif.) using a Riboprobe II kit (Promega Madison, Wis.). Hybridization is performed overnight at 50° C. See M. Weinreb et al., Different pattern of alkaline phosphalase, osteopontin and osteocalcin expression in developing rat bone visualized by in-situ hybridization, J. Bone Miner Res., 5, 83′-842 (1990) and D. Shinar et al., Expression of alphav and beta3 integrin subunits in rat osteoclasts in situ, J. Bone Miner. Res., 8, 403-414 (1993), which are both incorporated by reference herein in their entirety. […]

A short description of series [3]: Ocular tolerability in animal species compared to compounds of WO 2004/085430. As to conditions: compared to compounds disclosed in WO 2004/085430 (i.e., Example 2). In kind it is in vivo.
A short description of series [4]: Vehicle panel-controlled 5 day ocular tolerability study (topical, bilateral, b.i.d). It counts as in vivo, Dutch-Belted rabbits. Particulars: 5 days, 2.2 μM (25 μL) ophthalmic solution.
A short description of series [5]: Eye closure after ocular dosing. Particulars: versus Example 2 of WO 2004/085430. In kind it is in vivo, New Zealand White rabbits.
Series [6] can be described thus: Ocular adverse effects (conjuctival hyperemia, partial eye closure, etc.). It counts as in vivo, Cynomolgus Monkeys. Particulars: versus Example 2 of WO 2004/085430.

The structures appear in SMILES notation.

For the compound `CCCCC[C@H](O)/C=C/[C@H]1[C@H](O)CC(=O)[C@@H]1C/C=C\CCCC(=O)O` [PGE2], the “effect on intracellular cAMP” value in the series with ROS 17/2.8 cells is given as “no effect”; with RCT-3 cells, “markedly induced”; in the series on TRAB-11 cells it was “markedly induced”. Besides, the “effect on EP4 mRNA levels” value in [1] is “rapidly increases EP4 mRNA levels”; with EP4 mRNA in RCT-3 cells, “no effect on EP4 mRNA levels”. In addition, in series [1], the “time of peak EP4 mRNA levels after treatment” value amounted to 2 h. The “EP2 mRNA expression before or after treatment” value with EP2 mRNA in RP-1 cells was “not expressed”. In the series with EP4 mRNA in bone tissue, the “effect on EP4 mRNA levels in the tibial diaphysis” value was “rapidly increased EP4 mRNA levels”. Further, the “time of peak EP4 mRNA levels in the tibial diaphysis after injection” value with EP4 mRNA in bone tissue was found to be 2 h. In addition, in the series on EP2 mRNA in bone tissue, the “induction of EP2 mRNA in bone tissue” value is “does not induce EP2 mRNA”. In [2], the “expression of EP4 in bone marrow cells” value is on record as “increased the expression of EP4”.
For the compound `CC(C)OC(=O)c1ccc(CCCN2C(=O)OCC[C@@H]2/C=C/[C@@H](O)C(F)(F)c2cccc(Br)c2)s1` [Example 1, Isopropyl 5-(3-{(4R)-4-[(1E,3R)-4-(3-bromophenyl)-4,4-difluoro-3-hydroxybut-1-en-1-yl]-2-oxo-1,3-oxazinan-3-yl}propyl)thiophene-2-carboxylate], the ocular tolerability entry in [3] is “improved ocular tolerability”. Also, in series [4], the “drug treatment related findings” value is reported as “no drug treatment related findings”. The “improvement in eye closure” value in series [5] was found to be 5 fold. For the same compound, the “improvement in ocular adverse effects (conjuctival hyperemia, partial eye closure, etc.)” value in series [6] is 3-5 fold.

These data come from patent publication US20090105234A1, “EP4 Receptor Agonist, Compositions and Methods Thereof” (priority 2005, published 2009).
